Measured values published in patent US6444617B1, “Fused-heterocycle dicarboxylic acid diamide derivatives or salts thereof, herbicide and usage thereof” (Nihon Nohyaku Co., Ltd., priority 1998, dated 2002).

How the values were obtained:
Format in all cases: in vivo
[1] = test system: bulrush (Scirpus juncoides Roxb.); test: Test Example 1: herbicidal effect on paddy field weeds before emergence; settings: Dosage 5 kg/ha
In short: (§1)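 Grading reflects percent control relative to untreated plots, evaluated three weeks post-application. Treatment was a soil application of compound solution, predetermined dose, made to paddy-state pots before weed seeds germinated.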

[2] = test system: barnyard grass (Echinochloa crus-galli Beauv.); test: as above; settings: Dosage 5 kg/ha
In short: as §1

[3] = test system: bird's eye speedwell (Veronica persica Poir.), Vp; test: Test Example 3: herbicidal effect on upland weeds before emergence; settings: dosage 5 kg/ha
In short: (§2)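 Steps: sow upland weed seeds; spray liquid formulation of active ingredient at prescribed concentration prior to emergence; after 14 days, calculate weed-killing rate; judge herbicidal effect.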

[4] = test system: cleavers (Galium aparine L.), Ga; test: as above; settings: dosage 5 kg/ha
In short: as §2

[5] = test system: forxtail grass (Alopecurus aequalis var. amurensis Ohwi), Am; test: as above; settings: foxtail grass, dosage 5 kg/ha
In short: as §2

[6] = test system: cocklebur (Xanthium strumarium L.), Xs; test: as above; settings: dosage 5 kg/ha
In short: as §2

[7] = test system: velvetleaf (Abutilon theophtasti L.), At; test: as above; settings: dosage 5 kg/ha
In short: as §2

[8] = test system: barnyard grass (Echinochloa crus-galli Beauv.), Ec; test: as above; settings: dosage 5 kg/ha
In short: as §2

wheat (Wh) = test: Test Example 3: phytotoxicity to upland crop plants, treatment before emergence; settings: dosage 5 kg/ha
In short: (§3)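 Pre-emergence treatment: a liquid preparation containing a prescribed concentration of test compound was sprayed, and injury to soybean and wheat was assessed 14 days later. Phytotoxicity was judged against a scoring criterion, alongside weed-killing rate.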

soybean plant (So) = test: as above; settings: dosage 5 kg/ha
In short: as §3

wheat = test: Test Example 4: phytotoxicity to upland crop plants, treatment after emergence; settings: dosage 5 kg/ha, sprayed after emergence, judged 14 days after treatment
In short: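 Scores of weed-killing rate, with crop phytotoxicity, come from inspection 14 days after plants in soil vats, grown to specified leaf stages, are sprayed with a formulation holding the compound at a prescribed concentration.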

soybean plant = test: as above; settings: dosage 5 kg/ha, sprayed after emergence, judged 14 days after treatment
In short: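 Seeds sown in soil and covered. Plants raised to specified leaf stages. Agent with test compound at a prescribed concentration sprayed. Herbicidal effect and crop damage scored after 14 days as weed-killing rate.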

[9] = test system: bird's eye speedwell (Veronica persica Poir.), Vp; test: Test Example 4: herbicidal effect on upland weeds after emergence; settings: dosage 5 kg/ha; sprayed after emergence; judged 14 days after treatment
In short: (§4)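 Weeds, soybean and wheat were sown in soil-filled vats, covered with soil and grown to set leaf stages before a post-emergence spray of an agent containing the compound at a prescribed concentration. Weed-killing rate and crop phytotoxicity were assessed 14 days after treatment.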

[10] = test system: cleavers (Galium aparine L.), Ga; test: as above; settings: dosage 5 kg/ha; sprayed after emergence; judged 14 days after treatment
In short: as §4

[11] = test system: forxtail grass (Alopecurus aequalis var. amurensis Ohwi), Am; test: as above; settings: dosage 5 kg/ha; sprayed after emergence; judged 14 days after treatment
In short: as §4

[12] = test system: cocklebur (Xanthium strumarium L.), Xs; test: as above; settings: dosage 5 kg/ha; sprayed after emergence; judged 14 days after treatment
In short: as §4

[13] = test system: velvetleaf (Abutilon theophtasti L.), At; test: as above; settings: dosage 5 kg/ha; sprayed after emergence; judged 14 days after treatment
In short: as §4

[14] = test system: barnyard grass (Echinochloa crus-galli Beauv.), Ec; test: as above; settings: dosage 5 kg/ha; sprayed after emergence; judged 14 days after treatment
In short: as §4

[15] = test system: bulrush (Scirpus juncoides Roxb.); test: Test Example 2: herbicidal effect on paddy field weeds after emergence; settings: Dosage 5 kg/ha; one-leaved stage; 21 days after treatment
In short: (§5)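 Weeds in flooded paddy-soil pots were grown to the one-leaved stage, then the soil was treated with the compound solution at a set dosage.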

[16] = test system: monochoria (Monochoria vaginalis Presl); test: as above; settings: Dosage 5 kg/ha; one-leaved stage; 21 days after treatment
In short: as §5

[17] = test system: barnyard grass (Echinochloa crus-galli Beauv.); test: as above; settings: Dosage 5 kg/ha; one-leaved stage; 21 days after treatment
In short: as §5

Row | SMILES | Pre-emergence treatment Bulrush (herbicidal effect) [1] | Pre-emergence treatment Barnyard grass (herbicidal effect) [2] | Herbicidal effect Vp [3] | Herbicidal effect Ga [4] | Herbicidal effect Am [5] | Herbicidal effect Xs [6] | Herbicidal effect At [7] | Herbicidal effect Ec [8] | Phytotoxicity Wh (wheat (Wh)) | Phytotoxicity So (soybean plant (So)) | Phytotoxicity Wh (wheat) | Phytotoxicity So (soybean plant) | Herbicidal effect Vp [9] | Herbicidal effect Ga [10] | Herbicidal effect Am [11] | Herbicidal effect Xs [12] | Herbicidal effect At [13] | Herbicidal effect Ec [14] | Post-emergence treatment Bulrush (herbicidal effect) [15] | Post-emergence treatment Monochoria (herbicidal effect) [16] | other results
1 | CCNC(=O)c1nc2ccccc2cc1C(=O)Nc1c(CC)ccc(Cl)c1CC [359-2] | 5 (Weed-killing rate is 100%.) | 5 (Weed-killing rate is 100%.) | 5 (Weed-killing rate is 100%.) | 5 (Weed-killing rate is 100%.) | 5 (Weed-killing rate is 100%.) | 5 (Weed-killing rate is 100%.) | 5 (Weed-killing rate is 100%.) | 5 (Weed-killing rate is 100%.) | 0 (Crop-killing rate is 0-20% (No Phytotoxicity).) | 1 (Crop-killing rate is 1-39%.) | 3 (Crop-killing rate is 70-89%.) | 4 (Crop-killing rate is 90-99%.) | 5 (Weed-killing rate is 100%.) | 5 (Weed-killing rate is 100%.) | 5 (Weed-killing rate is 100%.) | 5 (Weed-killing rate is 100%.) | 5 (Weed-killing rate is 100%.) | 5 (Weed-killing rate is 100%.) | 5 (Weed-killing rate is 100%.) | 5 (Weed-killing rate is 100%.) | Post-emergence treatment Barnyard grass (herbicidal effect) [17]: 5 (Weed-killing rate is 100%.)
2 | CCCNC(=O)c1nc2c(ccn2C)cc1C(=O)Nc1c(CC)ccc(Cl)c1CC [compound 824] | 5 (Weed-killing rate is 100%.) | 5 (Weed-killing rate is 100%.) | 5 (Weed-killing rate is 100%.) | 5 (Weed-killing rate is 100%.) | 5 (Weed-killing rate is 100%.) | 5 (Weed-killing rate is 100%.) | 5 (Weed-killing rate is 100%.) | 5 (Weed-killing rate is 100%.) | 5 (Crop-killing rate is 100%.) | 5 (Crop-killing rate is 100%.) | 5 (Crop-killing rate is 100%.) | 4 (Crop-killing rate is 90-99%.) | 5 (Weed-killing rate is 100%.) | 5 (Weed-killing rate is 100%.) | 5 (Weed-killing rate is 100%.) | 5 (Weed-killing rate is 100%.) | 5 (Weed-killing rate is 100%.) | 5 (Weed-killing rate is 100%.) | 5 (Weed-killing rate is 100%.) | 5 (Weed-killing rate is 100%.) | Post-emergence treatment Barnyard grass (herbicidal effect) [17]: 5 (Weed-killing rate is 100%.)
3 | CCCNC(=O)c1nc2c(cc1C(=O)Nc1c(CC)ccc(Cl)c1CC)c(C)nn2C [compound 1112] | 5 (Weed-killing rate is 100%.) | 5 (Weed-killing rate is 100%.) | 5 (Weed-killing rate is 100%.) | 5 (Weed-killing rate is 100%.) | 5 (Weed-killing rate is 100%.) | 5 (Weed-killing rate is 100%.) | 5 (Weed-killing rate is 100%.) | 5 (Weed-killing rate is 100%.) | 5 (Crop-killing rate is 100%.) | 5 (Crop-killing rate is 100%.) | 5 (Crop-killing rate is 100%.) | 5 (Crop-killing rate is 100%.) | 5 (Weed-killing rate is 100%.) | 5 (Weed-killing rate is 100%.) | 5 (Weed-killing rate is 100%.) | 5 (Weed-killing rate is 100%.) | 5 (Weed-killing rate is 100%.) | 5 (Weed-killing rate is 100%.) | 5 (Weed-killing rate is 100%.) | 5 (Weed-killing rate is 100%.) | Post-emergence treatment Barnyard grass (herbicidal effect) [17]: 5 (Weed-killing rate is 100%.)
4 | CCc1ccc(Cl)c(CC)c1NC(=O)c1cc2c(nc1C(=O)NC1CCCC1)OCCC2 [compound 423] | 5 (Weed-killing rate is 100%.) | 5 (Weed-killing rate is 100%.) | 5 (Weed-killing rate is 100%.) | 5 (Weed-killing rate is 100%.) | 5 (Weed-killing rate is 100%.) | 5 (Weed-killing rate is 100%.) | 5 (Weed-killing rate is 100%.) | 5 (Weed-killing rate is 100%.) | 5 (Crop-killing rate is 100%.) | 4 (Crop-killing rate is 90-99%.) | 5 (Crop-killing rate is 100%.) | 4 (Crop-killing rate is 90-99%.) | 5 (Weed-killing rate is 100%.) | 5 (Weed-killing rate is 100%.) | 5 (Weed-killing rate is 100%.) | 5 (Weed-killing rate is 100%.) | 5 (Weed-killing rate is 100%.) | 5 (Weed-killing rate is 100%.) | 5 (Weed-killing rate is 100%.) | 5 (Weed-killing rate is 100%.) | Post-emergence treatment Barnyard grass (herbicidal effect) [17]: 5 (Weed-killing rate is 100%.)
